Experimental data published in patent publication US20100234455A1, “Histone Deacetylase Inhibitors” (Errant Gene Therapeutics, LLC, priority 2004, published 2010).

Legend:
[1] = system: LNCaP cells (human prostate cancer cells); experiment: p53 acetylation, p21 and Bax effects in LNCaP cells; assay type: cell-based
PC-3 cells = experiment: Bax and p21 activation in PC-3 cells (p53-/-, no HDAC2); assay type: cell-based; conditions: do not express HDAC2
tumors = conditions: cited from earlier work
HDAC = conditions: cited from earlier work
rat fibroblasts = conditions: cited from earlier work

Row | SMILES | level of histone acetylation [1] | Bax mitochondrial translocation and cleavage ([1]; LNCaP cells) | cell cycle arrest ([1]; LNCaP cells) | degradation of HDAC2 ([1]; LNCaP cells) | levels of total p53 ([1]; LNCaP cells) | p21 levels ([1]; LNCaP cells) | steady state level of cytosolic Bax ([1]; LNCaP cells) | acetylation of p53 at Lys320 ([1]; Lys320) | acetylation of p53 at Lys373 and Lys382 ([1]; Lys373 and Lys382) | p53 dependent activation of Bax (PC-3 cells) | p53 independent p21 activation (PC-3 cells) | formation of tumors in mice (tumors) | HDAC activity (HDAC) | cell cycle arrest of rat fibroblasts (rat fibroblasts)
1 | O=C(C=CC=CC=Cc1ccccc1)NO [7-phenyl-2,4,6-heptatrienoylhydroxamic acid] | increasing the level of histone acetylation | induced Bax mitochondrial translocation and cleavage | cell cycle arrest, primarily at G2/M interface | induction of selective degradation of HDAC2 | increases the levels of total p53 | p53-dependent increase in p21 levels | increased the steady state level of cytosolic Bax | not Lys320 | stabilizes the acetylation of p53 at amino acids Lys373 and Lys382 | absent | p53 independent p21 activation was observed |  |  | 
2 | O=C(CCCCCCC(=O)Nc1ccccc1)NO [SAHA, suberoylanilide hydroxamic acid] |  |  |  |  |  |  |  |  |  |  |  | prevent the formation of tumors in mice | HDAC activity is inhibited | 
3 | CC(/C=C/C(=O)NO)=C\[C@@H](C)C(=O)c1ccc(N(C)C)cc1 [TSA, trichostatin A] |  | nor did it affect Bax translocation and cleavage | induced p21 and cell cycle arrest |  |  | induced p21 | did not alter Bax levels |  |  | absent | p53 independent p21 activation was observed | prevent the formation of tumors in mice | HDAC activity is inhibited | causes arrest of rat fibroblasts at the G1 and G2 phases of the cell cycle
